Experimental data from patent US12150998B2, “Bicyclic peptide ligands specific for P-selectin” (BicycleTx Limited, priority 2021, dated 2024).
Where two headings read alike, the source gives them in different places. Starred links: 1 amine or outer side, 2 acyl side, 3 side chain; linkers in the order of their positions; H or OH if unused. Positions of bridges follow the written chain, without caps; N, C: chain ends. Non-standard residues stand in square brackets, D forms with d. Residues, ends and D or L forms follow the SMILES beside them. Chains are numbered I, II in the order given. X3 = O=C(CCOCCN(CCOCCC(=O)NCCOCCOCCOCCOCCOCCOCCOCCOCCOCCOCCOCCOCCOCCOCCOCCOCCOCCOCCOCCOCCOCCOCCOCCn1cc(CCC(=O)[*:2])nn1)CCOCCC(=O)NCCOCCOCCOCCOCCOCCOCCOCCOCCOCCOCCOCCOCCOCCOCCOCCOCCOCCOCCOCCOCCOCCOCCOCCn1cc(CCC(=O)[*:3])nn1)NCCOCCOCCOCCOCCOCCOCCOCCOCCOCCOCCOCCOCCOCCOCCOCCOCCOCCOCCOCCOCCOCCOCCOCCn1cc(CCC(=O)[*:1])nn1; X4 = O=C(CCOCCN(CCOCCC(=O)NCCOCCOCCOCCOCCOCCOCCOCCOCCOCCOCCn1cc(CCC(=O)[*:2])nn1)CCOCCC(=O)NCCOCCOCCOCCOCCOCCOCCOCCOCCOCCOCCn1cc(CCC(=O)[*:3])nn1)NCCOCCOCCOCCOCCOCCOCCOCCOCCOCCOCCn1cc(CCC(=O)[*:1])nn1; TATA = O=C(CC[*:1])N1CN(C(=O)CC[*:2])CN(C(=O)CC[*:3])C1; X1 = O=C(C[*:1])N1CCN(C(=O)C[*:2])CCN(C(=O)C[*:3])CC1; 1Nal = N[C@@H](Cc1cccc2ccccc12)C(=O)O

Key:
[1] = biological target: T1, human P-Selectin protein (Homo sapiens, UniProt P16109); test: SPR binding assay (Biacore); settings: recombinant biotinylated human P-Selectin, 25° C.
T1 sequence (P16109 42-830): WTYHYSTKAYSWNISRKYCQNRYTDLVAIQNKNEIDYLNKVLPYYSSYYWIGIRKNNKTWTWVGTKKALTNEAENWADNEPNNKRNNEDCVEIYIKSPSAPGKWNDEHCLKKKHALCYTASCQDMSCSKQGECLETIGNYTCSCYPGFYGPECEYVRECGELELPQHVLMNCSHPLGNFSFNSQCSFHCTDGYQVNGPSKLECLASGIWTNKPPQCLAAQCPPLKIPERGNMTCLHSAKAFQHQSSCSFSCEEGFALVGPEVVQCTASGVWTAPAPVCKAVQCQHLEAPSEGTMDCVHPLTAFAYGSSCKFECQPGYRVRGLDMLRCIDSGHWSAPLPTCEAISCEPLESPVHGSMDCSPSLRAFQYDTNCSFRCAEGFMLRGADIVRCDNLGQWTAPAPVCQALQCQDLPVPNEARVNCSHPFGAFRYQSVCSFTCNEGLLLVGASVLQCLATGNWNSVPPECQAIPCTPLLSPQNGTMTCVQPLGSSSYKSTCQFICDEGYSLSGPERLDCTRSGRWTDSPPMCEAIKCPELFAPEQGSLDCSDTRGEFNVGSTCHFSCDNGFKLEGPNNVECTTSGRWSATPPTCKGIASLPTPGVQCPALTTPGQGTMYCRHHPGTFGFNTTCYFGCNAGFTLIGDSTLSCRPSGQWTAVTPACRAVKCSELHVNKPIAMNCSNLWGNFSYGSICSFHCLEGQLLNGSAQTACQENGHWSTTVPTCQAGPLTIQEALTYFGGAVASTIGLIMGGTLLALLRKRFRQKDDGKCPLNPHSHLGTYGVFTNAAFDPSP
Method: Biacore experiments were performed to determine ka (M−1s−1), kd (s−1), KD (nM) values of monomeric peptides binding to human Selectin proteins. Recombinant biotinylated human P-Selectin protein was used. For analysis of binding, either a Biacore 3000 or 5200 instrument was used with a CMS sensor chip (GE Healthcare). For sensor chip surface preparation, streptavidin was immobilized on the chip using standard amine-coupling chemistry at 25° C. with HBS-N (10 mM HEPES, 0.15 M NaCl, pH 7.4) as the running buffer. The carboxymethyl dextran surface was activated with a 12 min injection of a 1:1 ratio of 0.4 M 1-ethyl-3-(3-dim ethyl aminopropyl) carbodiimide hydrochloride (EDC)/0.1 M N-hydroxy succinimide (NHS) at a flow rate of 10 μl/min. For capture of streptavidin, protein was diluted to 0.2 mg/ml in 10 mM sodium acetate (pH 4.5) and captured by injecting 70 μl onto the activated chip surface. Residual activated groups were blocked with a 7 min injection of 1 M ethanolamine (pH 8.5). Biotinylated protein stock was diluted 1:100 in HBS-N and captured on one flow cell at 5 μl/min to a level of 1000-1500 RU. Buffer was changed to PBS/0.05% Tween 20 and a dilution series of the peptides was prepared in this buffer with a final DMSO concentration of 0.5%. The top concentration of the analyte varied from 200 nM to 50 μM; depending on predicted affinity of the interaction. In all cases a titration was performed with either seven 2-fold dilutions or five 3-fold dilutions. The SPR analysis was run at 25° C. with a flow rate of 50-80 μl/min with 60 seconds association and a suitable disassociation period (100-900 seconds). Data were corrected for DMSO excluded volume effects. All data were double-referenced for blank injections and reference surface using standard processing procedures and data processing and kinetic fitting were performed using Scrubber software, version 2.0c (BioLogic Software). Data were fitted using mass transport model allowing for mass transport effects where appropriate.

[2] = biological target: T2, P-Selectin:PSGL1 interaction (Homo sapiens, UniProt P16109); test: Receptor ligand inhibition assay (P-Selectin binding to HL-60 cells); type: cell-based; settings: geomean of n=3
T2 construct: host or cells: HL-60 cells (ATCC, CCL-240) supply the PSGL-1 partner endogenously
T2 sequence (P16109 42-771 limits assumed): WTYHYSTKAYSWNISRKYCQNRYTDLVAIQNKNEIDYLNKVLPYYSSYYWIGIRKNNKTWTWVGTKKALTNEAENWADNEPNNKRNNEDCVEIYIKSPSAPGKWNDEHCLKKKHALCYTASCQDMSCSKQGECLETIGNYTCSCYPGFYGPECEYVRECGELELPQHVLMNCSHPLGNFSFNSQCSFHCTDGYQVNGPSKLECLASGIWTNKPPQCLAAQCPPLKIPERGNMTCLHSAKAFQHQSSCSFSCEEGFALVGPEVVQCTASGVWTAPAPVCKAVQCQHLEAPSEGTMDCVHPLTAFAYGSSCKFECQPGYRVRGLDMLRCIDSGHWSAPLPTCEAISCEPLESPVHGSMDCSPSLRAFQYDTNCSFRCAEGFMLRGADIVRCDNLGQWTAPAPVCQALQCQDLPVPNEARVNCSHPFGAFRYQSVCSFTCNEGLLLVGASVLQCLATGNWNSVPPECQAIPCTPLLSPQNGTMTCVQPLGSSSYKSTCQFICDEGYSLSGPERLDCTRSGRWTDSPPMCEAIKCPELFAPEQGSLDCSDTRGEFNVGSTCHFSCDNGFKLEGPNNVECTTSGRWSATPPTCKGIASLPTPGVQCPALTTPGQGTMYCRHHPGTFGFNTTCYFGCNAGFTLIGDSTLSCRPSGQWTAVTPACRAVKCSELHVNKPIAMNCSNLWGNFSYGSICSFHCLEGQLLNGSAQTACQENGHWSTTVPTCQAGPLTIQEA
Method: Bicycle test samples, SelG1 (Crizanlizumab) were serially diluted maintaining 0.5% DMSO in assay buffer (25 mM HEPES, 121 mM NaCl, 5.4 mM KCl, 0.8 mM MgCl2, 1.8 mM CaCl2), 6 mM […], 5.5 mM glucose, 1% BSA, pH7.4) and transferred to 384 well clear bottom plates (Corning, 3712) with a final volume of 6 μL. […], of P-Selectin in imaging buffer (25 mM HEPES, 121 mM NaCl, 5.4 mM KCl, 0.8 mM MgCl2, 1.8 mM CaCl2), 6 mM […], 5.5 mM glucose, pH7.4) was added to give a 5 nM final concentration and incubated at room temperature for 15 minutes. HL-60 cells (ATCC, CCL-240) mixed with 1 μg/mL far red labelled wheat germ agglutinin (WGA, ThermoFisher W21404) and 1 μg/mL AlexaFluor 488-streptavidin (Invitrogen S11223) were added to the plate and incubated for 2 hours at room temperature in the absence of light. Staining and antibody binding were quantified by simultaneously scanning the microplates with 488 nm and 640 nm lasers on a mirrorball microplate cytometer, AF488 on FL2 triggering on AF647-WGA on FL4. Data was analysed in Dotmatics, using a four parameter logistic fit to generate IC50 values and % response. Percent inhibition was calculated using 100−% response at top concentration.

[3] = read-out: Affinity KD determined by SPR

Compound	Kd ([1]; Affinity KD determined by SPR)	Kd [1, 3]	IC50 ([2]; 5 nM P-Selectin, HL-60 cells, read-out: IC50)	Inhibition at top concentration ([2]; 100−% response at top concentration)
CSCC[C@@H]1NC(=O)[C@H](Cc2ccc(O)cc2)NC(=O)[C@@H](NC(=O)[C@H](C)NC(C)=O)CSCCC(=O)N2CN3CN(C2)C(=O)CCSC[C@H](NC(=O)[C@H](Cc2c[nH]c4ccccc24)NC(=O)[C@H](CCC(=O)O)NC1=O)C(=O)N[C@@H](CC(=O)O)C(=O)N[C@@H](C(C)C)C(=O)N[C@@H]([C@@H](C)O)C(=O)N[C@@H](CC(=O)O)C(=O)N[C@@H](Cc1ccc(O)cc1)C(=O)NCC(=O)N[C@H](C(=O)N[C@@H](CCCCNC(=O)CCc1cn(CCOCCOCCOCCOCCOCCOCCOCCOCCOCCOCCOCCOCCOCCOCCOCCOCCOCCOCCOCCOCCOCCOCCOCCNC(=O)CCOCC(COCCC(=O)NCCOCCOCCOCCOCCOCCOCCOCCOCCOCCOCCOCCOCCOCCOCCOCCOCCOCCOCCOCCOCCOCCOCCOCCn2cc(CCC(=O)NCCCC[C@H](NC(=O)[C@@H]4CSCCC(=O)N5CN6CN(C5)C(=O)CCSC[C@H](NC(=O)[C@H](Cc5c[nH]c7ccccc57)NC(=O)[C@H](CCC(=O)O)NC(=O)[C@H](CCSC)NC(=O)[C@H](Cc5ccc(O)cc5)NC(=O)[C@@H](NC(=O)[C@H](C)NC(C)=O)CSCCC6=O)C(=O)N[C@@H](CC(=O)O)C(=O)N[C@@H](C(C)C)C(=O)N[C@@H]([C@@H](C)O)C(=O)N[C@@H](CC(=O)O)C(=O)N[C@@H](Cc5ccc(O)cc5)C(=O)NCC(=O)N4)C(N)=O)nn2)(COCCC(=O)NCCOCCOCCOCCOCCOCCOCCOCCOCCOCCOCCOCCOCCOCCOCCOCCOCCOCCOCCOCCOCCOCCOCCOCCn2cc(CCC(=O)NCCCC[C@H](NC(=O)[C@@H]4CSCCC(=O)N5CN6CN(C5)C(=O)CCSC[C@H](NC(=O)[C@H](Cc5c[nH]c7ccccc57)NC(=O)[C@H](CCC(=O)O)NC(=O)[C@H](CCSC)NC(=O)[C@H](Cc5ccc(O)cc5)NC(=O)[C@@H](NC(=O)[C@H](C)NC(C)=O)CSCCC6=O)C(=O)N[C@@H](CC(=O)O)C(=O)N[C@@H](C(C)C)C(=O)N[C@@H]([C@@H](C)O)C(=O)N[C@@H](CC(=O)O)C(=O)N[C@@H](Cc5ccc(O)cc5)C(=O)NCC(=O)N4)C(N)=O)nn2)COCCC(=O)NCCOCCOCCOCCOCCOCCOCCOCCOCCOCCOCCOCCOCCOCCOCCOCCOCCOCCOCCOCCOCCOCCOCCOCCn2cc(CCC(=O)NCCCC[C@H](NC(=O)[C@@H]4CSCCC(=O)N5CN6CN(C5)C(=O)CCSC[C@H](NC(=O)[C@H](Cc5c[nH]c7ccccc57)NC(=O)[C@H](CCC(=O)O)NC(=O)[C@H](CCSC)NC(=O)[C@H](Cc5ccc(O)cc5)NC(=O)[C@@H](NC(=O)[C@H](C)NC(C)=O)CSCCC6=O)C(=O)N[C@@H](CC(=O)O)C(=O)N[C@@H](C(C)C)C(=O)N[C@@H]([C@@H](C)O)C(=O)N[C@@H](CC(=O)O)C(=O)N[C@@H](Cc5ccc(O)cc5)C(=O)NCC(=O)N4)C(N)=O)nn2)nn1)C(N)=O)CSCCC3=O [BCY5465]	140 nM	–	–	–
CC(C)C[C@@H]1NC(=O)[C@H](CO)NC(=O)[C@@H]2CCCN2C(=O)[C@H](C(C)C)NC(=O)[C@H](CC(=O)O)NC(=O)[C@@H]2CSCC(=O)N3CCN(CCN(CC3)C(=O)CSC[C@@H](C(=O)N[C@@H](C)C(N)=O)NC(=O)[C@@H]3CCCN3C1=O)C(=O)CSC[C@H](NC(=O)[C@H](C)N)C(=O)N[C@@H](CC(=O)O)C(=O)N[C@@H](C)C(=O)N[C@@H](CC(=O)O)C(=O)N[C@@H](Cc1cccc3ccccc13)C(=O)N2 [BCY12027, A-(SEQ ID NO: 2)-A] (H-ACDAD[1Nal]CDVPSLPCA-NH2; linker 2-7-14 via X1; N-terminus assumed)	–	< 10 nM	> 36.8 nM	36%
I: Ac-ACYMEWCDVTDYGCK-NH2 / II: Ac-ACYMEWCDVTDYGCK-NH2 / III: Ac-ACYMEWCDVTDYGCK-NH2 (linker I:2-I:7-I:14, II:2-II:7-II:14, III:2-III:7-III:14 via TATA; linker I:15-II:15-III:15 via X3) [BCY5461]	230 nM	–	–	–
I: Ac-ACYMEWCDVTDYGCK-NH2 / II: Ac-ACYMEWCDVTDYGCK-NH2 / III: Ac-ACYMEWCDVTDYGCK-NH2 (linker I:2-I:7-I:14, II:2-II:7-II:14, III:2-III:7-III:14 via TATA; linker I:15-II:15-III:15 via X4) [BCY5460]	–	239 nM	–	–
